Laboratory results as given in the NIST ThermoML archive (doi:10.1016/j.jct.2016.04.014).
± gives the expanded uncertainty stated by the source.

Test: xn = mol fraction of the nth substance listed
Conditions: Liquid, Vibrating tube method

CCCCCCCC [octane] + CCO
mass density [kg/m3]
Conditions	100 kPa	500 kPa	5000 kPa	10000 kPa	15000 kPa	20000 kPa	25000 kPa	30000 kPa	35000 kPa	40000 kPa
293.15 K, x1 = 0.2492	743.9 ± 1.7	744.3 ± 1.7	748.2 ± 1.7	752.3 ± 1.7	756.2 ± 1.7	759.9 ± 1.7	763.4 ± 1.7	766.8 ± 1.7	770 ± 1.8	773.2 ± 1.8
293.15 K, x1 = 0.4999	722.3 ± 1.7	722.6 ± 1.8	726.5 ± 1.7	730.6 ± 1.7	734.4 ± 1.7	738.1 ± 1.7	741.6 ± 1.7	744.9 ± 1.8	748.1 ± 1.8	751.2 ± 1.8
293.15 K, x1 = 0.7503	709.6 ± 1.7	709.9 ± 1.7	713.7 ± 1.7	717.7 ± 1.7	721.5 ± 1.7	725.1 ± 1.7	728.6 ± 1.8	731.9 ± 1.8	735 ± 1.8	738.1 ± 1.8
303.15 K, x1 = 0.2492	735.3 ± 1.7	735.7 ± 1.7	739.8 ± 1.7	744.2 ± 1.7	748.3 ± 1.7	752.2 ± 1.7	755.9 ± 1.7	759.5 ± 1.7	762.9 ± 1.8	766.2 ± 1.8
303.15 K, x1 = 0.4999	713.7 ± 1.7	714.1 ± 1.7	718.3 ± 1.7	722.6 ± 1.7	726.7 ± 1.7	730.6 ± 1.7	734.2 ± 1.7	737.7 ± 1.8	741.1 ± 1.8	744.3 ± 1.8
303.15 K, x1 = 0.7503	701.2 ± 1.7	701.5 ± 1.7	705.6 ± 1.7	709.9 ± 1.7	713.9 ± 1.7	717.8 ± 1.7	721.4 ± 1.8	724.9 ± 1.8	728.2 ± 1.8	731.4 ± 1.8
313.15 K, x1 = 0.2492	726.5 ± 1.7	726.9 ± 1.7	731.3 ± 1.7	736 ± 1.7	740.4 ± 1.7	744.5 ± 1.7	748.4 ± 1.7	752.1 ± 1.7	755.7 ± 1.8	759.1 ± 1.8
313.15 K, x1 = 0.4999	705 ± 1.7	705.4 ± 1.7	709.8 ± 1.7	714.5 ± 1.7	718.8 ± 1.7	722.9 ± 1.7	726.8 ± 1.7	730.5 ± 1.8	734 ± 1.8	737.4 ± 1.8
313.15 K, x1 = 0.7503	692.6 ± 1.7	693 ± 1.7	697.4 ± 1.7	702 ± 1.7	706.3 ± 1.7	710.3 ± 1.7	714.1 ± 1.8	717.8 ± 1.8	721.2 ± 1.8	724.6 ± 1.8
323.15 K, x1 = 0.2492	717.4 ± 1.7	717.9 ± 1.7	722.6 ± 1.7	727.6 ± 1.7	732.2 ± 1.7	736.6 ± 1.7	740.7 ± 1.7	744.6 ± 1.7	748.4 ± 1.8	752 ± 1.8
323.15 K, x1 = 0.4999	696 ± 1.7	696.4 ± 1.7	701.2 ± 1.7	706.1 ± 1.7	710.8 ± 1.7	715.1 ± 1.7	719.2 ± 1.8	723.1 ± 1.8	726.8 ± 1.8	730.4 ± 1.8
323.15 K, x1 = 0.7503	683.8 ± 1.7	684.2 ± 1.7	688.9 ± 1.7	693.8 ± 1.7	698.4 ± 1.7	702.7 ± 1.7	706.8 ± 1.8	710.6 ± 1.8	714.2 ± 1.8	717.8 ± 1.8
333.15 K, x1 = 0.2492	708.2 ± 1.7	708.6 ± 1.7	713.7 ± 1.7	719.1 ± 1.7	724 ± 1.7	728.6 ± 1.7	733 ± 1.7	737.1 ± 1.8	741 ± 1.8	744.8 ± 1.8
333.15 K, x1 = 0.4999	686.8 ± 1.8	687.3 ± 1.7	692.4 ± 1.7	697.7 ± 1.7	702.7 ± 1.7	707.3 ± 1.7	711.6 ± 1.8	715.7 ± 1.8	719.6 ± 1.8	723.4 ± 1.8
333.15 K, x1 = 0.7503	674.8 ± 1.7	675.3 ± 1.7	680.4 ± 1.7	685.6 ± 1.7	690.5 ± 1.7	695.1 ± 1.8	699.3 ± 1.8	703.4 ± 1.8	707.2 ± 1.8	710.9 ± 1.8
353.15 K, x1 = 0.2492	–	689 ± 1.7	695 ± 1.7	701.1 ± 1.7	706.8 ± 1.7	712 ± 1.7	716.9 ± 1.7	721.5 ± 1.8	725.8 ± 1.8	730 ± 1.8
353.15 K, x1 = 0.4999	–	667.9 ± 1.7	674 ± 1.7	680.2 ± 1.7	685.8 ± 1.7	691.1 ± 1.7	695.9 ± 1.8	700.5 ± 1.8	704.8 ± 1.8	709 ± 1.8
353.15 K, x1 = 0.7503	–	656.6 ± 1.7	662.6 ± 1.7	668.7 ± 1.7	674.3 ± 1.7	679.5 ± 1.8	684.3 ± 1.8	688.7 ± 1.8	693 ± 1.8	697.1 ± 1.8
373.15 K, x1 = 0.2492	–	667.6 ± 2.7	674.8 ± 2.7	682 ± 2.7	688.6 ± 2.7	694.6 ± 2.7	700.1 ± 2.7	705.2 ± 2.7	710 ± 2.7	714.6 ± 2.8
373.15 K, x1 = 0.4999	–	647.2 ± 2.7	654.4 ± 2.7	661.7 ± 2.7	668.3 ± 2.7	674.3 ± 2.7	679.8 ± 2.7	684.9 ± 2.7	689.7 ± 2.8	694.3 ± 2.8
373.15 K, x1 = 0.7503	–	637 ± 2.7	644.1 ± 2.7	651.2 ± 2.7	657.7 ± 2.7	663.6 ± 2.7	669 ± 2.7	674 ± 2.8	678.7 ± 2.8	683.2 ± 2.8
